How the values were obtained:
[1] = molecular target: T1, TYK2 JH2 (Homo sapiens, UniProt P29597); test: TYK2 JH2 binding assay (KINOMEscan KdELECT competitive binding); conditions: TYK2 JH2 domain, DiscoverX KINOMEscan KdELECT (Assay A); read-out: Biochemical TYK2_DiscoverX_JH2_BND_Kd
T1 construct: purchased DiscoverX (KINOMEscan KdELECT service); host or cells: E. coli BL21-derived (T7 phage display) or HEK-293
Summary of the method: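 Test compounds were titrated in 11 three-fold steps against JH2 fragment captured on ligand-loaded magnetic beads, with 1 h incubation at room temperature and DMSO at 0.9%. Eluted kinase was quantified by qPCR, and Kd was fitted from the dose series.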

[2] = system: JAK1/TYK2 pSTAT5 (Tyr694/699) in THP-1 cell line; test: IFNa-stimulated JAK1/TYK2 pSTAT5 (Tyr694/699) inhibition cellular assay, AlphaLISA; type: cell-based; conditions: Homo sapiens; THP-1 cells, IFNa-stimulated, AlphaLISA (Assay B); read-out: Cellular_THP1_IFNa-pSTATS_TYK2
Summary of the method: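 pSTAT5 (Tyr694/699) in lysates quantified by AlphaLISA (615 nm) after 30 min IFNa stimulation (100 ng/mL stock) of THP-1 cells. The cells, 2e4 per well in HBSS, had first been exposed 1 h at 37° C. to eight 6-fold compound dilutions, 10000 down to 0.04 nM final. IC50 fitted by 4PL regression, bottom 0, Hill slope −1.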

T1 sequence (P29597 589-875 limits assumed): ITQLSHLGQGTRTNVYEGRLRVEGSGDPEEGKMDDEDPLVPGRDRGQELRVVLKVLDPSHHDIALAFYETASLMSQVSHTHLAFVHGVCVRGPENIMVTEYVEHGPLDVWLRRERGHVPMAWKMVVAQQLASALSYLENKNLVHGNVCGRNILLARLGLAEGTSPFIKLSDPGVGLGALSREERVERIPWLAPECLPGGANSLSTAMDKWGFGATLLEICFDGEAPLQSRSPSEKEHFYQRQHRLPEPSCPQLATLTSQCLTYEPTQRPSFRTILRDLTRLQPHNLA

Kd [1] | IC50 [2] | SMILES
≤ 100 nM | ≤ 500 nM | CCNc1ncc(-c2nc3cc(N4CCO[C@@H](C)C4)ccc3o2)c2cc(NC(=O)C3CC3)ncc12 [Example 366, (S)—N-(8-(ethylamino)-5-(5-(2-methylmorpholino)benzo[d]oxazol-2-yl)-2,7-naphthyridin-3-yl)cyclopropanecarboxamide]
≤ 100 nM | ≤ 500 nM | COc1ccc2oc(-c3cnc(NC4CC4)c4cnc(NC(=O)C5CC5)cc34)nc2c1 [Example 367, N-(8-(cyclopropylamino)-5-(5-methoxybenzo[d]oxazol-2-yl)-2,7-naphthyridin-3-yl)cyclopropanecarboxamide]
≤ 100 nM | > 500 nM | CNc1ncc(-c2nc3cc(OC)ccc3o2)c2cc(Nc3ccc(F)cn3)ncc12 [Example 374, N^6-(5-fluoropyridin-2-y1)-4-(5-methoxybenzo[d]oxazol-2-yl)-N^1-methyl-2,7-naphthyridine-1,6-diamine]
≤ 100 nM | ≤ 500 nM | CNc1ncc(-c2nc3cc(OC)ccc3o2)c2cc(Nc3cc(C)n(C)n3)ncc12 [Example 376, N^6-(1,5-dimethyl-1H-pyrazol-3-yl)-4-(5-methoxybenzo[d]oxazol-2-yl)-N^1-methyl-2,7-naphthyridine-1,6-diamine]
≤ 100 nM | > 500 nM | CNc1ncc(-c2nc3cc(OC)ccc3o2)c2cc(NC(=O)C3(F)CC3)ncc12 [Example 381, 1-fluoro-N-(5-(5-methoxybenzo[d]oxazol-2-yl)-8-(methylamino)-2,7-naphthyridin-3-yl)cyclopropane-1-carboxamide]
≤ 100 nM | ≤ 500 nM | CNc1ncc(-c2nc3cc(OC)ccc3o2)c2cc(NC(=O)[C@H]3C[C@H]3C)ncc12 [Example 384, (1S,2R)-N-(5-(5-methoxybenzo[d]oxazol-2-yl)-8-(methylamino)-2,7-naphthyridin-3-y1)-2-methylcyclopropane-1-carboxamide]
≤ 100 nM | ≤ 500 nM | CNc1ncc(-c2nc3cc(OC)ccc3o2)c2cc(NC(=O)[C@@H]3C[C@@H]3F)ncc12 [Example 388, (1S,2S)-2-fluoro-N-(5-(5-methoxybenzo[d]oxazol-2-y1)-8-(methylamino)-2,7-naphthyridin-3-yl)cyclopropane-1-carboxamide]
≤ 100 nM | ≤ 500 nM | CNc1ncc(-c2nc3cc(OC)ccc3o2)c2cc(NC(=O)[C@@H]3C[C@H]3F)ncc12 [Example 390, (1S,2R)-2-fluoro-N-(5-(5-methoxybenzo[d]oxazol-2-yl)-8-(methylamino)-2,7-naphthyridin-3-yl)cyclopropane-1-carboxamide]
≤ 100 nM | > 500 nM | CNc1ncc(-c2nc3cc(OC)ccc3o2)c2cc(NC(=O)CC(C)(O)CO)ncc12 (stereo not shown) [Example 402, 3,4-dihydroxy-N-(5-(5-methoxybenzo[d]oxazol-2-yl)-8-(methylamino)-2,7-naphthyridin-3-yl)-3-methylbutanamide]
≤ 100 nM | > 500 nM | CNc1ncc(-c2nc3cc(OC)ccc3o2)c2cc(NC3CCC(=O)O3)ncc12 (stereo not shown) [Example 403, 5-((5-(5-methoxybenzo[d]oxazol-2-yl)-8-(methylamino)-2,7-naphthyridin-3-yl)amino)dihydrofuran-2(3H)-one]
≤ 100 nM | ≤ 500 nM | CNc1ncc(-c2nc3cc(N4CCO[C@@H](C)C4)ccc3o2)c2cc(NC(=O)[C@@H]3C[C@@H]3F)ncc12 [Example 407, (1S,2S)-2-fluoro-N-(8-(methylamino)-5-(5-((S)-2-methylmorpholino)benzo[d]oxazol-2-yl)-2,7-naphthyridin-3-yl)cyclopropane-1-carboxamide]
≤ 100 nM | ≤ 500 nM | CNc1ncc(-c2nc3cc(N4CCO[C@@H](C)C4)ccc3o2)c2cc(NC(=O)[C@H]3C[C@H]3C)ncc12 [Example 408, (1S,2R)-2-methyl-N-(8-(methylamino)-5-(5-((S)-2-methylmorpholino)benzo[d]oxazol-2-yl)-2,7-naphthyridin-3-yl)cyclopropane-1-carboxamide]

Further lines, the molecule ahead of its results:

SMILES | Kd [1] | IC50 [2]
[2H]C([2H])([2H])Nc1ncc(-c2nc3c(OC)cccc3o2)c2cc(NC(=O)C3CC3)ncc12 [Example 363, N-(5-(4-methoxybenzo[d]oxazol-2-yl)-8-((methyl-d3)amino)-2,7-naphthyridin-3-yl)cyclopropanecarboxamide] | ≤ 100 nM | ≤ 500 nM
[2H]C([2H])([2H])Nc1ncc(-c2nc3cc(N4CCOCC4)ccc3o2)c2cc(NC(=O)C3CC3)ncc12 [Example 364, N-(8-((methyl-d3)amino)-5-(5-morpholinobenzo[d]oxazol-2-yl)-2,7-naphthyridin-3-yl)cyclopropanecarboxamide] | ≤ 100 nM | ≤ 500 nM
[2H]C([2H])([2H])Nc1ncc(-c2nc3cc(OC([2H])([2H])[2H])ccc3o2)c2cc(NC(=O)C3CC3)ncc12 [Example 365, N-(5-(5-(methoxy-d3)benzo[d]oxazol-2-yl)-8-((methyl-d3)amino)-2,7-naphthyridin-3-yl)cyclopropanecarboxamide] | ≤ 100 nM | ≤ 500 nM
C[C@H]1CN(c2ccc3oc(-c4cnc(N)c5cnc(NC(=O)C6CC6)cc45)nc3c2)CCO1 [Example 368, (S)—N-(8-amino-5-(5-(2-methylmorpholino)benzo[d]oxazol-2-yl)-2,7-naphthyridin-3-yl)cyclopropanecarboxamide] | ≤ 100 nM | ≤ 500 nM
COc1ccc2oc(-c3cnc(N)c4cnc(NC(=O)C5CC5)cc34)nc2c1 [Example 369, N-(8-amino-5-(5-methoxybenzo[d]oxazol-2-yl)-2,7-naphthyridin-3-yl)cyclopropanecarboxamide] | ≤ 100 nM | ≤ 500 nM
COc1ccc2oc(-c3cnc(NCC(F)F)c4cnc(NC(=O)C5CC5)cc34)nc2c1 [Example 370, N-(8-((2,2-difluoroethyl)amino)-5-(5-methoxybenzo[d]oxazol-2-yl)-2,7-naphthyridin-3-yl)cyclopropanecarboxamide] | ≤ 100 nM | ≤ 500 nM
O=C(Nc1cc2c(-c3nc4ccccc4o3)cnc(O)c2cn1)C1CC1 [Example 371, N-(5-(benzo[d]oxazol-2-yl)-8-hydroxy-2,7-naphthyridin-3-yl)cyclopropanecarboxamide] | ≤ 100 nM | > 500 nM
CNc1ncc(-c2nc3cc(OC)ccc3o2)c2cc(Nc3ccccn3)ncc12 [Example 372, 4-(5-methoxybenzo[d]oxazol-2-yl)-N^1-methyl-N^6-(pyridin-2-yl)-2,7-naphthyridine-1,6-diamine] | ≤ 100 nM | ≤ 500 nM
CNc1ncc(-c2nc3cc(OC)ccc3o2)c2cc(Nc3ccc(C(C)(C)O)cn3)ncc12 [Example 375, 2-(6-((5-(5-methoxybenzo[d]oxazol-2-y1)-8-(methylamino)-2,7-naphthyridin-3-yl)amino)pyridin-3-yl)propan-2-ol] | ≤ 100 nM | ≤ 500 nM
CNc1ncc(-c2nc3cc(OC)ccc3o2)c2cc(Nc3cc(C)nc(C)n3)ncc12 [Example 377, N^6-(2,6-dimethylpyrimidin-4-yl)-4-(5-methoxybenzo[d]oxazol-2-yl)-N^1-methyl-2,7-naphthyridine-1,6-diamine] | ≤ 100 nM | ≤ 500 nM
CNc1ncc(-c2nc3cc(OC)ccc3o2)c2cc(Nc3ccc(OC)cn3)ncc12 [Example 378, 4-(5-methoxybenzo[d]oxazol-2-yl)-N^6-(5-methoxypyridin-2-yl)-N^1-methyl-2,7-naphthyridine-1,6-diamine] | ≤ 100 nM | ≤ 500 nM
CNc1ncc(-c2nc3cc(OC)ccc3o2)c2cc(Nc3cccc(OC)n3)ncc12 [Example 379, 4-(5-methoxybenzo[d]oxazol-2-yl)-N^6-(6-methoxypyridin-2-yl)-N^1.methyl-2,7-naphthyridine-1,6-diamine] | ≤ 100 nM | ≤ 500 nM
CNc1ncc(-c2nc3cc(OC)ccc3o2)c2cc(Nc3ccc(N4CCOCC4)cn3)ncc12 [Example 380, 4-(5-methoxybenzo[d]oxazol-2-yl)-N^1-methyl-N^6-(5-morpholinopyridin-2-yl)-2,7-naphthyridine-1,6-diamine] | ≤ 100 nM | ≤ 500 nM
CNc1ncc(-c2nc3cc(OC)ccc3o2)c2cc(NC(=O)CC(F)(F)F)ncc12 [Example 386, 3,3,3-trifluoro-N-(5-(5-methoxybenzo[d]oxazol-2-yl)-8-(methylamino)-2,7-naphthyridin-3-yl)propanamide] | ≤ 100 nM | ≤ 500 nM
CNc1ncc(-c2nc3cc(OC)ccc3o2)c2cc(NC(=O)[C@H]3C[C@H]3F)ncc12 [Example 387, (1R,2R)-2-fluoro-N-(5-(5-methoxybenzo[d]oxazol-2-y1)-8-(methylamino)-2,7-naphthyridin-3-yl)cyclopropane-1-carboxamide] | ≤ 100 nM | ≤ 500 nM
CNc1ncc(-c2nc3cc(OC)ccc3o2)c2cc(NC(=O)[C@H]3C[C@@H]3F)ncc12 [Example 389, (1R,2S)-2-fluoro-N-(5-(5-methoxybenzo[d]oxazol-2-yl)-8-(methylamino)-2,7-naphthyridin-3-yl)cyclopropane-1-carboxamide] | ≤ 100 nM | ≤ 500 nM
CNc1ncc(-c2nc3cc(OC)ccc3o2)c2cc(NC(=O)C3(O)CC3)ncc12 [Example 404, 1-hydroxy-N-(5-(5-methoxybenzo[d]oxazol-2-yl)-8-(methylamino)-2,7-naphthyridin-3-yl)cyclopropane-1-carboxamide] | ≤ 100 nM | ≤ 500 nM
